Here are results for nine molecules from PMC8267177, “Cyclic Peptoid-Peptide Hybrids as Versatile Molecular Transporters” (Frontiers in Chemistry, 2021).

The nature of data set [1]: in vitro. The data set is classed as cell-based. As to conditions: human. The procedure: The cytotoxicity of the macrocyclic hybrids 15–24, as well as their conjugates 15-Rhod to 24-Rhod, was examined using a standard MTT assay in human epithelial cervix carcinoma (HeLa) cells. […] ([Mosmann, 1983]; [Tolosa et al., 2015]) After treatment of HeLa cells with different concentrations of the respective macrocycles 15–24 (0.50─50 µM) for 72 h, no significant cytotoxic effects were observed. […] As shown by many research groups that Rhodamine B by itself is not efficiently entering the cells showing therefore an LD50 > 50 μM, we assume that this the toxicity of the Rhodamine moiety might be higher when increasingly localizing in the mitochondria to a higher amount.
In a 96-well plate (Corning® Costar® 3596 96-Well Cell Culture Cluster), 1.0 × 10^4 HeLa-cells per well of a 96 well plate were cultivated for 16 h. Stock solutions of the single compounds in dimethylsulfoxide were diluted to 0.50 µm, 5.00 µm, and 50.0 µm with cell culture medium (DMEM + 10% FBS + 1% P/S) to ensure a final concentration of DMSO below 0.5%. 100 µL of the prepared DMEM diluted compounds were added to each well and the cells were incubated for 72 h. All experiments were performed in triplicates. Cells that were solely treated with the culture medium containing 0.5% of DMSO served as a negative control. After incubation, the positive control (cells in DMSO plus 0.5% DMSO) was treated with 1% Triton-X. To determine the viability of the cells 20 µL of a freshly prepared solution of 3-(4,5-dimethylthiazol-2-yl)-2,5-diphenyltetrazolium bromide (MTT, 2.73 mg/mL, Sigma-Aldrich®) in culture medium were added to each well and incubated at 37 °C for 4 h. The reaction was stopped using 100 µL of Solubilization Solution / Stop Mix (CellTiter 96® Non-Radioactive Cell Proliferation Assay, Promega). After 24 h, the absorption (A) of every well at 595 nm was monitored using a 96-well plate reader (Ultra Microplate Reader ELx808, Biotech Instruments Inc.).

The subject of data set [2] is HeLa cells. As to the kind of experiment: Localization assay: cellular uptake and organellar localization by confocal microscopy. Format: cell-based, human. The following applies: 5 µM, 5 h, 37 °C; for Cellular uptake efficiency: confocal microscopy of Rhodamine B fluorescence (Exc 532 nm, Em 570–620 nm); for Organellar localization (mitochondria): counterstaining with MitoTracker Green, confocal microscopy. The procedure:
As 15-Rhod to 24-Rhod were not toxic at 5 µM the following transport experiments were carried out using this concentration. To study their cellular uptake and organellar localization, HeLa cells were treated with 5 µM of the cyclic conjugates 15-Rhod to 24-Rhod for 5 h and eventually imaged using confocal microscopy (for experimental details, see supplemental Material).
FIGURE 4 Localization of the macrocyclic conjugates 15-Rhod to 24-Rhod in HeLa cells. After incubation with a 5.0 µM solution of the respective transporters for 5 h, the cellular uptake was monitored via fluorescent confocal microscopy (Rhodamine B labeled hybrids: λ Exc = 532 nm, λ Em = 570–620 nm; MitoTracker® Green: λ Exc = 488 nm, λ Em = 490–540 nm; Hoechst 33,342: λ Exc = 405 nm, λ Em = 430–490 nm). Counterstaining with MitoTracker® Green visualized mitochondria (green). Staining with 2 μg/ml Hoechst 33,342 indicated nuclei (blue). Scale bar: 10 µm.
In an 8-well chamber slide (µ-Slide 8-Well ibidiTreat, ibidi®), 1.0 × 10^4 HeLa cells per well were cultivated for 16 h. The cyclic hybrids were diluted with DMEM to yield a 5 µM concentration. The cells were treated with the hybrids for 5 h at 37 °C. To monitor the intracellular localization, the cells were counterstained with MitoTracker® (Invitrogen) and 2 µg/mL Hoechst 33342. After washing with DPBS (3 ×), the luminescence was monitored via life-cell imaging using a Leica TCS-SPE confocal microscope (DM2500 inverse microscope, 8 Bit resolution, 1024 × 1024 pixels), equipped with a 1 Airy pinhole aperture (111.5 µm), ACS APO 63.0x/1.30 OIL UV and 40x/1.14 OIL UV objectives and the images were processed by the Leica Application Suite (LAS-AF) Version 2.1.2 build 4530 software. Images were taken with a scanning frequency of 400 Hz. Background noise was averaged by an eight-fold repetition of the scan process. The cyclic hybrids were excited at 532 nm, MitoTracker® Green at 488 nm, and Hoechst 33342 at 405 nm. The exposure was set to minimize oversaturated pixels in the final images. Fluorescence emission was measured at 570–620 nm for the detection of rhodamine B labeled hybrids, at 490–540 nm for the detection of mitochondria, and 430–490 nm for the detection of nuclei.

Data set [3] has as its system cells. As to conditions: free dye, not efficiently entering the cells; ref many research groups (reference not given); cited from earlier work. The procedure:
The cytotoxicity of the macrocyclic hybrids 15–24, as well as their conjugates 15-Rhod to 24-Rhod, was examined using a standard MTT assay in human epithelial cervix carcinoma (HeLa) cells. […] ([Mosmann, 1983]; [Tolosa et al., 2015]) After treatment of HeLa cells with different concentrations of the respective macrocycles 15–24 (0.50─50 µM) for 72 h, no significant cytotoxic effects were observed.

In data set [4] the test system is HeLa cells. Kind of data set: Cellular uptake at 4 °C and 37 °C (CLSM, Figure S1). As to conditions: 5 µM, 2 h incubation at 4 °C and 37 °C. The data set is classed as cell-based, human. The text has this: The molecular transporters 15-Rhod, 20-Rhod and 22-Rhod are characterized by low cytotoxicity, efficient cellular uptake, and high specificity. Thus, they represent the most promising cyclic hybrids capable of the transport of different cargos into mitochondria. […] The capability of hydrophobic structures to function as molecular transporters is also known for so-called hydrophobic CPPs. However, only a few members of this substance class have been discovered yet. ([Xie et al., 2020]; [Desale et al., 2021]) It is assumed, that hydrophobic CPPs may penetrate cellular membranes in a direct, energy-independent manner dispensing with endocytosis. ([Gao et al., 2002]; [Gao et al., 2011]; [Nakayama et al., 2011]; [Guidotti et al., 2017]; [Tian et al., 2017]) The latter leads to a major challenge as molecular transporters might not escape the endosomes and get degraded instead of reaching their designated targets. […] The efficient internalization at a low temperature led us to the assumption that 22-Rhod might directly penetrate the cell membrane. However, the uptake mechanism of macrocyclic hybrids will be further examined.
Figure S1: Confocal Laser Scanning Microscopy (CLSM) images of HeLa cells after 2 h incubation with 5 µM peptoid 22-Rhod at 4 °C (top line, A) and 37 °C (bottom line, B). […]

SMILES strings stand for the structures. “Also recorded” adds a separate entry of the source. Non-standard residues stand in square brackets, D forms with d. Residues, ends and D or L forms follow the SMILES beside them. *: point of attachment. RhodamineB = CCN(CC)c1ccc2c(-c3ccccc3C(=O)*)c3ccc(=[N+](CC)CC)cc-3oc2c1; Gly(Nα-4-Cl-benzyl) = O=C(O)CNCc1ccc(Cl)cc1; Nphe = O=C(O)CNCc1ccccc1; NBuGly = CCCCNCC(=O)O; Nlys = NCCCCNCC(=O)O

On to `CCN(CC)c1ccc2c(-c3ccccc3C(=O)NCCCCN3CC(=O)N[C@@H](Cc4ccc(O)cc4)C(=O)N[C@@H](Cc4ccccc4)C(=O)N(Cc4ccccc4)CC3=O)c3ccc(=[N+](CC)CC)cc-3oc2c1` [18-Rhod, cyclo-(l-Phe-N4am(Rhod)-N1ph-l-Tyr)] (cyclo(F[Nphe][Nlys](RhodamineB)Y)), for which the half-inhibitory concentration (IC50) at 72 h in data set [1] is 33 µM. For the same molecule, in data set [2], the Cellular uptake efficiency entry was “not internalized”.
Take `CCN(CC)c1ccc2c(-c3ccccc3C(=O)NCCCCN3CC(=O)N(Cc4ccc(Cl)cc4)CC(=O)N(Cc4ccc(Cl)cc4)CC(=O)N(Cc4ccc(Cl)cc4)CC(=O)N[C@@H](Cc4ccccc4)C(=O)N[C@@H](Cc4ccccc4)C3=O)c3ccc(=[N+](CC)CC)cc-3oc2c1` [23-Rhod, cyclo-(l-Phe-N1ph^pCl-N1ph^pCl-N1ph^pCl-N4am(Rhod)-l-Phe)] (cyclo(F[Nlys](RhodamineB)[Gly(Nα-4-Cl-benzyl)][Gly(Nα-4-Cl-benzyl)][Gly(Nα-4-Cl-benzyl)]F)): half-maximal inhibition in data set [1] (IC50 at 72 h) was put at 6 µM. Further, in data set [2], the Cellular uptake efficiency entry is reported as “significantly less efficient” and the “Organellar localization (mitochondria)” value was “Mitochondrial accumulation”.
As for `CCN(CC)c1ccc2c(-c3ccccc3C(=O)O)c3ccc(=[N+](CC)CC)cc-3oc2c1` [Rhodamine B], the “LD50 of Rhodamine B by itself” value in data set [3] was above 50 µM.
In data set [1], `CCN(CC)c1ccc2c(-c3ccccc3C(=O)NCCCCN3CC(=O)N(Cc4ccccc4)CC(=O)N(Cc4ccccc4)CC(=O)N(Cc4ccccc4)CC(=O)N[C@@H](Cc4ccccc4)C(=O)N[C@@H](Cc4ccccc4)C3=O)c3ccc(=[N+](CC)CC)cc-3oc2c1` [22-Rhod, cyclo-(l-Phe-N1ph-N1ph-N1ph-N4am(Rhod)-l-Phe)] (cyclo(FF[Nlys](RhodamineB)[Nphe][Nphe][Nphe])) gave a 50% inhibitory concentration (IC50) at 72 h of 44 µM. Also, in data set [4], the “Mitochondrial uptake at 37 °C and at 4 °C” value is “occurring at 37 °C as well as at 4 °C”. Also, in data set [2], the Cellular uptake efficiency entry is on record as “efficiently taken up; also recorded: high cellular uptake efficiency” and the “Organellar localization (mitochondria)” value is “mitochondrial specificity”.
`CCCCN1CC(=O)N[C@@H](Cc2ccccc2)C(=O)N[C@@H](Cc2ccccc2)C(=O)N(CCCCNC(=O)c2ccccc2-c2c3ccc(=[N+](CC)CC)cc-3oc3cc(N(CC)CC)ccc23)CC(=O)N(Cc2ccccc2)CC(=O)N(CCCC)CC1=O` [24-Rhod, cyclo-(l-Phe-N3m-N3m-N1ph-N4am(Rhod)-l-Phe)] (cyclo(F[Nlys](RhodamineB)[Nphe][NBuGly][NBuGly]F)) returned an IC50 at 72 h in data set [1] of 26 µM. For the same molecule, in data set [2], the Cellular uptake efficiency entry is “efficiently taken up; also recorded: high cellular uptake efficiency” and the “Organellar localization (mitochondria)” value is reported as “mitochondrial specificity”.
In data set [1], `NCCCCN1CC(=O)N[C@@H](Cc2ccccc2)C(=O)N[C@@H](Cc2ccccc2)C(=O)N(Cc2ccccc2)CC(=O)N(Cc2ccccc2)CC(=O)N(Cc2ccccc2)CC1=O` [compound 22, cyclo-(l-Phe-N1ph-N1ph-N1ph-N4am-l-Phe)] (cyclo(FF[Nphe][Nphe][Nphe][Nlys])) had a 50% inhibitory concentration (IC50) at 72 h above 50 µM.
Still for that read-out and setting: next, `CCN(CC)c1ccc2c(-c3ccccc3C(=O)NCCCC[C@@H]3NC(=O)CN(Cc4ccccc4)C(=O)CN(Cc4ccccc4)C(=O)[C@H](Cc4c[nH]c5ccccc45)NC3=O)c3ccc(=[N+](CC)CC)cc-3oc2c1` [19-Rhod, cyclo-(l-Trp-N1ph-N1ph-l-Lys(Rhod))] (cyclo(K(RhodamineB)W[Nphe][Nphe])): 34 µM; `CCCCN1CC(=O)N(Cc2ccccc2)CC(=O)N(CCCCN)CC(=O)N[C@@H](Cc2ccccc2)C1=O` [compound 17, cyclo-(l-Phe-N3m-N1ph-N4am)] (cyclo(F[NBuGly][Nphe][Nlys])): above 50 µM; `NCCCC[C@@H]1NC(=O)CN(Cc2ccccc2)C(=O)CN(Cc2ccccc2)C(=O)[C@H](Cc2c[nH]c3ccccc23)NC1=O` [compound 19, cyclo-(l-Trp-N1ph-N1ph-l-Lys)] (cyclo(KW[Nphe][Nphe])): above 50 µM.
